According to US20110152112A1, “DIAGNOSIS AND TREATMENT OF REVERSE CHOLESTEROL TRANSPORT DEFICIENCY-RELATED DISEASES” (Artery Therapeutics, Inc., priority 2009, published 2011):

System: J774 mouse macrophages (foam-cells)
Assay: Lipid efflux from J774 macrophage foam-cells to media (nascent HDL, LC-MS/MS)
Type: cell-based
Description: Study 1: Isolation of Nascent HDL from Incubations of Macrophage Foam-Cells with AT5261 and apoA-I.
A commercial transformed macrophage cell-line, J774 (mouse), was used to evaluate lipid efflux responses to peptide ATI-5261 and ApoA-I. Macrophage foam-cells were prepared and exposed to lipid-free AT5261 peptide and ApoA-I, respectively; Nascent HDL products resulting from stimulation of cholesterol efflux were isolated and concentrated from conditioned medium and analyzed for lipid content.
Near confluent T175-flasks (30 total) of J774 mouse macrophages were incubated (2 days) with 0.1 mg/ml acetylated LDL in […] culture medium containing 1% FBS, to produce foam-cells. On the day of the experiment, cell monolayers were rinsed (3 times) with 20 ml/flask of HBSS, incubated 1 h with 0.2% BSA in serum-free RPMI-1640 medium, then rinsed (3 times) with serum-free RPMI. Rinsed cells were then exposed (20 ml/flask) to either apoA-I (15 flasks) or ATI-5261 (15 flasks), at a final concentration of 10 microgram/ml serum free RPMI. Following 20 h, conditioned medium was recovered from flasks, pooled within groups, and filtered (0.2 mμ). The pooled medium (˜300 ml) was subsequently concentrated to 5 ml using an Amicon stir-cell (10 K membrane) and density adjusted to 1.21 g/ml with solid NaBr. Nascent HDL was isolated by ultracentrifugation (120K, 5 h 20 minutes, 10° C.) using a TL-120 centrifuge, samples dialyzed to saline (pH=7.4) and filter sterilized (0.2 nip, Nalgene capsules). Isolated material was used for detailed MS of PL subclasses, subjected to non-denaturing gradient gel electrophoresis and protein lipid ratios determined by 280 abs. and commercial kits.
Samples were kept at −80° C. until extraction. Samples were allowed to thaw on ice and a small aliquot of each sample was transferred into siliconized glass tubes followed by addition of ultrapure water. Samples were spiked with either a mixture of C17-based ceramide, sphingosine, sphingosine-1-phosphate and sphingomyelin (10 ng of each as internal sphingolipid standards) or ([…] of deuterated 16:0/16:0 PC as internal phosphatidylcholine standard). Samples were subjected to a Bligh and Dyer extraction (Bligh, E. G., Dryer, W. J. (1959) Can J Biochem physiol 37, 911-917). Lipid extracts were dried under stream of nitrogen at room temperature. The dried lipid extracts were then reconstituted in […] ethanol/formic acid (99.8/0.2) and kept at 4° C. until LC-MS/MS analysis. Extracts were injected onto a reverse phase C18 HPLC Column to separate and resolve the various lipids. Phosphatidylcholine and sphingolipids were eluted off the column and analyzed on a triple quadrupole mass spectrometer Sciex API 5500. The data acquisition was performed in a targeted MRM (MS/MS) mode using lipid specific precursor ion to product ion (or parent to daughter ion) mass transitions resulting in highly sensitive and specific quantitative data. The resulting data was processed using Applied Biosystems Analyst 1.4.2 software.

Question: With “ApoA-I: apolipoprotein A-I, natures strongest effluxer, lipid-free comparator” as the substance, how does the “Cholesterol: Phospholipid molar ratio mobilized to media” value (10 microgram/ml, 20 h, (S.D.)) read?
Answer: 2.89 (S.D. 0.68)

Question: What about the “PC mobilized to media” value (LC-MS/MS, 10 microgram/ml, 20 h) of the same substance?
Answer: 19

Question: And the “LPC mobilized to media” value (LC-MS/MS, n=2)?
Answer: 40

Question: What about the LPC media concentrations (all LPC) of the same substance?
Answer: increased

Question: And the “phospholipid (PL) media concentrations” value (all PL)?
Answer: increased

Question: What about the “type of LPC mobilized” value (values adjusted for the 2-fold difference) of the same substance?
Answer: more of longer chain and more saturated LPCs
